For the test, the system named is normal human dermal fibroblasts (NHDF pool PF2). Kind of test: Incorporation of thymidine, proline and leucine in macromolecules neosynthesized by fibroblasts in culture. Format: cell-based. To be noted: for Leucine incorporation / Proline incorporation / Thymidine incorporation: NHDF in vitro culture. The procedure:
A study was performed with the aim of evaluating, via a screening method, the effects of the compounds on the growth of fibroblasts and the synthesis of the major constituents of the extracellular matrix. The technique made it possible to study and evaluate the advantage of taurine on this cell metabolism (T. Shigematsu et al. Biochimica et Biophysica Acta 1200 (1994) 79-83).
A pool of normal human dermal fibroblasts (NHDF pool PF2, used at the eighth passage) was cultured under standard conditions in a medium: DMEM, 2 mM L-glutamine, 50 IU/ml/50 […] penicillin/streptomycin, 0.5% fetal calf serum.
Taurine was tested at concentrations of 10 mM and 1 mM in a sterile culture medium, against an untreated control blank.
The figures in bold are those for which there is a significant variation (stat. sign. meaning statistical significance: p<0.005). The results are expressed as a percentage of the control.

The mark [1] stands for this setting: at the two concentrations (1 mM, 10 mM), fibroblasts.

Entries after “also recorded” stand apart in the source; their conditions may differ.

For the setting “1 mM taurine”, `NCCS(=O)(=O)O` [taurine, Taurine] yielded a Leucine incorporation of 100 % control, a Proline incorporation of 88 % control and a Thymidine incorporation of 89 % control. Further, under “10 mM taurine”, the Leucine incorporation was found to be 105 % control, the Proline incorporation is reported as 87 % control and the Thymidine incorporation is 90 % control. Besides, under setting [1], the “incorporation of leucine (representative of noncollagen protein synthesis), in words” value is “did not significantly modify; also recorded: without impairing that of leucine”; the “incorporation of proline by the fibroblasts, in words” value is reported as “did significantly inhibit; also recorded: reduces the incorporation of proline”; the “incorporation of thymidine (representative of cell proliferation), in words” value is given as “did not significantly modify”.
